Strand notation (5' to 3'): a small letter for the sugar, then the base; units joined by * are phosphorothioate-linked, units joined directly phosphodiester-linked; [ ] holds rarer units or linkages, { } end groups; capitals alone tell only the bases. e = 2'-O-(2-methoxyethyl) (MOE); k = constrained ethyl (cEt); [5mC] = 5-methylcytosine; d = 2'-deoxy (DNA)
tested on: human PKK mRNA; experiment: Antisense inhibition of human PKK mRNA in HepaRG cells, 1,000 nM, MOE/deoxy/cEt oligonucleotides (Example 3); format: cell-based; settings: HepaRG cells, 1,000 nM antisense oligonucleotide, Table 29
Outline: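 HepaRG cells at 20,000 per well electroporated with 1,000 nM 16-mer MOE/cEt/deoxy gapmers (phosphorothioate, 5-methylcytosine). After about 24 h, PKK mRNA measured by qRT-PCR with primer probe set RTS3454, normalized to RIBOGREEN total RNA. Reported as percent inhibition versus untreated cells.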

Substance	% inhibition
548589 (eT*e[5mC]*kT*dG*dT*dT*dA*d[5mC]*d[5mC]*dT*dT*dG*dA*kG*kG*eA; antisense) [compound 548589]	40%
548562 (antisense eA*eG*kA*dT*dG*dA*d[5mC]*d[5mC]*dT*dG*d[5mC]*dA*dG*kA*kT*eG) [compound 548562]	50%
548584 (eT*eG*kA*dT*dG*dA*dA*dG*dT*dT*d[5mC]*d[5mC]*dA*k[5mC]*k[5mC]*eT; antisense) [compound 548584]	47%
548598 (eG*e[5mC]*kG*d[5mC]*d[5mC]*dA*dT*d[5mC]*dT*dG*d[5mC]*d[5mC]*d[5mC]*kT*kG*eT; antisense) [compound 548598]	50%
548573 (e[5mC]*e[5mC]*kA*dG*dT*d[5mC]*dA*d[5mC]*d[5mC]*dA*d[5mC]*d[5mC]*dA*kT*kT*eG; antisense) [compound 548573]	65%

same assay, conditions: HepaRG cells, electroporation with 1,000 nM antisense oligonucleotide, approx. 24 hours, PKK mRNA by RT-PCR (RTS3454), relative to untreated control cells; Table 25 experiment

Substance	% inhibition
548181 (eG*eT*k[5mC]*dA*dT*dG*dG*dA*dG*dA*dT*d[5mC]*dT*k[5mC]*kA*eG; antisense) [compound 548181]	55%

same assay, conditions: HepaRG cells, electroporation with 1,000 nM antisense oligonucleotide, approx. 24 hours, PKK mRNA by RT-PCR (RTS3454), relative to untreated control cells; Table 26 experiment

Substance	% inhibition
548295 (e[5mC]*eT*k[5mC]*dT*dG*dA*dT*dT*dG*dG*dG*dT*d[5mC]*kA*k[5mC]*e[5mC]; antisense) [compound 548295]	26%
548240 (eA*eT*kA*d[5mC]*dT*d[5mC]*dG*d[5mC]*d[5mC]*dT*dT*dT*dG*kT*kG*eA; antisense) [compound 548240]	3%
548300 (eG*e[5mC]*k[5mC]*d[5mC]*dA*dT*dG*dG*dT*dG*dA*dA*dT*k[5mC]*kT*eG; antisense) [compound 548300]	53%
548261 (antisense eT*eT*k[5mC]*dA*dG*dG*dG*dA*dG*dT*dG*dA*dT*kG*kT*e[5mC]) [compound 548261]	36%
548259 (antisense eG*eT*kG*dA*dT*dG*dA*dA*dA*dG*dT*dA*d[5mC]*kA*kG*e[5mC]) [compound 548259]	45%
548272 (antisense eG*eG*kT*dG*d[5mC]*d[5mC]*dA*d[5mC]*dT*dT*dG*d[5mC]*dT*kT*kG*eG) [compound 548272]	54%
548242 (eG*e[5mC]*kA*dT*dA*d[5mC]*dT*d[5mC]*dG*d[5mC]*d[5mC]*dT*dT*kT*kG*eT; antisense) [compound 548242]	25%
548277 (antisense eG*eG*kA*dT*dT*dG*dG*dA*d[5mC]*d[5mC]*d[5mC]*dA*dG*kA*k[5mC]*eA) [compound 548277]	57%

same assay, conditions: HepaRG cells, electroporation with 1,000 nM antisense oligonucleotide, approximately 24 hours, primer probe set RTS3454, relative to untreated control cells; experiment of Table 23

Substance	% inhibition
547937 (eT*eG*kT*dG*dA*d[5mC]*dT*d[5mC]*dG*dA*dT*dT*dT*kT*k[5mC]*e[5mC]; antisense) [compound 547937]	56%

same assay, conditions: HepaRG cells, electroporation with 1,000 nM antisense oligonucleotide, approximately 24 hours, primer probe set RTS3454, relative to untreated control cells; experiment of Table 24

Substance	% inhibition
548019 (e[5mC]*e[5mC]*k[5mC]*d[5mC]*dA*dA*dG*dA*dA*dG*dA*dG*dT*kT*kT*eG; antisense) [compound 548019]	24%
548064 (eT*eG*kG*dT*dA*dT*dA*dA*dA*dT*dT*dG*dT*kG*k[5mC]*eT; antisense) [compound 548064]	54%

same assay, conditions: PKK mRNA, HepaRG cells, 1,000 nM antisense oligonucleotide; Table 31

Substance	% inhibition
548683 (antisense eA*eG*kT*dA*dT*d[5mC]*dT*d[5mC]*dA*dT*dG*dT*dG*k[5mC]*k[5mC]*eT) [compound 548683]	46%
548635 (antisense eA*eG*kG*dT*dG*dT*dG*dG*d[5mC]*dG*d[5mC]*dG*d[5mC]*kG*k[5mC]*e[5mC]) [compound 548635]	18%
548689 (DNA e[5mC]*e[5mC]*kA*dG*dG*dT*dG*d[5mC]*dA*dG*d[5mC]*dA*d[5mC]*kG*kG*eA) [compound 548689]	12%
548660 (antisense eA*eT*kG*d[5mC]*dT*dT*dA*d[5mC]*d[5mC]*dT*dT*dT*d[5mC]*kT*k[5mC]*e[5mC]) [compound 548660]	0%

same assay, conditions: Table 19; HepaRG cells, electroporation with 1,000 nM antisense oligonucleotide, approximately 24 hours; PKK mRNA by RT-PCR (RTS3454), relative to untreated control cells

Substance	% inhibition
548121 (antisense eT*e[5mC]*kT*dG*dG*dA*d[5mC]*dT*dG*d[5mC]*dT*dT*d[5mC]*kT*k[5mC]*eA) [compound 548121]	64%
548087 (antisense eA*e[5mC]*kT*dA*dA*dG*dG*dG*dA*d[5mC]*d[5mC]*dA*d[5mC]*k[5mC]*kT*eG) [compound 548087]	24%
548117 (antisense e[5mC]*eT*k[5mC]*dA*dT*dG*d[5mC]*dT*dG*dG*dT*dG*dA*k[5mC]*kT*eG) [compound 548117]	73%
548080 (e[5mC]*e[5mC]*k[5mC]*dT*dT*d[5mC]*dT*dT*dT*dA*dT*dA*dG*k[5mC]*k[5mC]*eA; antisense) [compound 548080]	0%
548150 (e[5mC]*eA*kG*dA*d[5mC]*dA*dT*dT*dG*dT*d[5mC]*d[5mC]*dT*k[5mC]*kA*eG; antisense) [compound 548150]	60%

same assay, conditions: Table 20; HepaRG cells, electroporation with 1,000 nM antisense oligonucleotide, approximately 24 hours; PKK mRNA by RT-PCR (RTS3454), relative to untreated control cells

Substance	% inhibition
547865 (antisense eA*eA*kA*dA*dT*dT*dG*dA*d[5mC]*dT*d[5mC]*d[5mC]*dT*k[5mC]*kT*e[5mC]) [compound 547865]	3%
547869 (antisense eA*eA*k[5mC]*d[5mC]*dT*dT*dA*dG*dA*d[5mC]*dA*d[5mC]*dA*kT*kT*eA) [compound 547869]	45%
547872 (antisense eT*eG*k[5mC]*dT*dA*dA*d[5mC]*d[5mC]*dT*dT*dA*dG*dA*k[5mC]*kA*e[5mC]) [compound 547872]	85%
547855 (antisense eT*eA*kT*d[5mC]*dA*dA*d[5mC]*dT*d[5mC]*d[5mC]*dT*dT*dT*kA*kT*eA) [compound 547855]	59%

same assay, conditions: Table 21 experiment; HepaRG cells, electroporation with 1,000 nM antisense oligonucleotide, approx. 24 hours; PKK mRNA by RT-PCR (RTS3454), relative to untreated control cells

Substance	% inhibition
547800 (eA*e[5mC]*kA*dT*dG*dG*dA*dA*dG*d[5mC]*dT*dA*d[5mC]*kA*kT*e[5mC]; antisense) [compound 547800]	20%
547805 (eG*eG*kG*dT*dG*dT*dA*d[5mC]*dA*dT*dG*dG*dA*kA*kG*e[5mC]; antisense) [compound 547805]	54%
547790 (antisense eT*eG*kA*dA*dA*dT*dA*dA*dG*dT*dT*dG*d[5mC]*kT*kT*eG) [compound 547790]	23%

same assay, conditions: Table 22 experiment; HepaRG cells, electroporation with 1,000 nM antisense oligonucleotide, approx. 24 hours; PKK mRNA by RT-PCR (RTS3454), relative to untreated control cells

Substance	% inhibition
547888 (eT*e[5mC]*k[5mC]*dG*dG*dT*dA*d[5mC]*dT*d[5mC]*dT*dG*d[5mC]*k[5mC]*kT*eT; antisense) [compound 547888]	99%
547865 (antisense eA*eA*kA*dA*dT*dT*dG*dA*d[5mC]*dT*d[5mC]*d[5mC]*dT*k[5mC]*kT*e[5mC]) [compound 547865]	61%
547869 (antisense eA*eA*k[5mC]*d[5mC]*dT*dT*dA*dG*dA*d[5mC]*dA*d[5mC]*dA*kT*kT*eA) [compound 547869]	77%
547872 (antisense eT*eG*k[5mC]*dT*dA*dA*d[5mC]*d[5mC]*dT*dT*dA*dG*dA*k[5mC]*kA*e[5mC]) [compound 547872]	73%
547855 (antisense eT*eA*kT*d[5mC]*dA*dA*d[5mC]*dT*d[5mC]*d[5mC]*dT*dT*dT*kA*kT*eA) [compound 547855]	38%

same assay, conditions: Table 28; HepaRG cells, 1,000 nM antisense oligonucleotide; human PKK mRNA

Substance	% inhibition
548535 (antisense eG*eA*kG*dT*d[5mC]*dT*dT*dT*d[5mC]*d[5mC]*dA*dA*dT*k[5mC]*k[5mC]*eT) [compound 548535]	13%

same assay, conditions: Table 30; human PKK mRNA, HepaRG cells, 1,000 nM antisense oligonucleotide

Substance	% inhibition
548393 (e[5mC]*eG*k[5mC]*dT*dT*d[5mC]*dA*dG*dG*dA*dA*dA*dG*k[5mC]*kG*eA; antisense) [compound 548393]	26%
548454 (eA*e[5mC]*kT*dG*dT*dA*d[5mC]*d[5mC]*dT*dA*dT*dA*dA*k[5mC]*kA*eG; antisense) [compound 548454]	17%
548436 (antisense eA*eT*kA*dT*d[5mC]*dA*d[5mC]*dT*dG*dT*dA*d[5mC]*d[5mC]*kT*kG*eT) [compound 548436]	8%
548405 (e[5mC]*eG*kG*dA*d[5mC]*d[5mC]*dT*dT*d[5mC]*dA*dT*d[5mC]*dT*kT*k[5mC]*eA; antisense) [compound 548405]	35%
548415 (antisense eA*eT*kA*dA*d[5mC]*dT*d[5mC]*dT*dA*dA*d[5mC]*dA*dG*kT*kA*eT) [compound 548415]	0%

Source: patent US11840686B2, “Modulation of prekallikrein (PKK) expression” (Ionis Pharmaceuticals, Inc., priority 2013, dated 2023)
